{"source": "patent US20100119525A1", "about": "(priority 2005, published 2010)", "key": {"[1]": {"settings": "in vivo, cited from earlier work"}, "[2]": {"target": "NPC1L1 (Homo sapiens, UniProt Q9UHC9)", "sequence (Q9UHC9 22-1359)": "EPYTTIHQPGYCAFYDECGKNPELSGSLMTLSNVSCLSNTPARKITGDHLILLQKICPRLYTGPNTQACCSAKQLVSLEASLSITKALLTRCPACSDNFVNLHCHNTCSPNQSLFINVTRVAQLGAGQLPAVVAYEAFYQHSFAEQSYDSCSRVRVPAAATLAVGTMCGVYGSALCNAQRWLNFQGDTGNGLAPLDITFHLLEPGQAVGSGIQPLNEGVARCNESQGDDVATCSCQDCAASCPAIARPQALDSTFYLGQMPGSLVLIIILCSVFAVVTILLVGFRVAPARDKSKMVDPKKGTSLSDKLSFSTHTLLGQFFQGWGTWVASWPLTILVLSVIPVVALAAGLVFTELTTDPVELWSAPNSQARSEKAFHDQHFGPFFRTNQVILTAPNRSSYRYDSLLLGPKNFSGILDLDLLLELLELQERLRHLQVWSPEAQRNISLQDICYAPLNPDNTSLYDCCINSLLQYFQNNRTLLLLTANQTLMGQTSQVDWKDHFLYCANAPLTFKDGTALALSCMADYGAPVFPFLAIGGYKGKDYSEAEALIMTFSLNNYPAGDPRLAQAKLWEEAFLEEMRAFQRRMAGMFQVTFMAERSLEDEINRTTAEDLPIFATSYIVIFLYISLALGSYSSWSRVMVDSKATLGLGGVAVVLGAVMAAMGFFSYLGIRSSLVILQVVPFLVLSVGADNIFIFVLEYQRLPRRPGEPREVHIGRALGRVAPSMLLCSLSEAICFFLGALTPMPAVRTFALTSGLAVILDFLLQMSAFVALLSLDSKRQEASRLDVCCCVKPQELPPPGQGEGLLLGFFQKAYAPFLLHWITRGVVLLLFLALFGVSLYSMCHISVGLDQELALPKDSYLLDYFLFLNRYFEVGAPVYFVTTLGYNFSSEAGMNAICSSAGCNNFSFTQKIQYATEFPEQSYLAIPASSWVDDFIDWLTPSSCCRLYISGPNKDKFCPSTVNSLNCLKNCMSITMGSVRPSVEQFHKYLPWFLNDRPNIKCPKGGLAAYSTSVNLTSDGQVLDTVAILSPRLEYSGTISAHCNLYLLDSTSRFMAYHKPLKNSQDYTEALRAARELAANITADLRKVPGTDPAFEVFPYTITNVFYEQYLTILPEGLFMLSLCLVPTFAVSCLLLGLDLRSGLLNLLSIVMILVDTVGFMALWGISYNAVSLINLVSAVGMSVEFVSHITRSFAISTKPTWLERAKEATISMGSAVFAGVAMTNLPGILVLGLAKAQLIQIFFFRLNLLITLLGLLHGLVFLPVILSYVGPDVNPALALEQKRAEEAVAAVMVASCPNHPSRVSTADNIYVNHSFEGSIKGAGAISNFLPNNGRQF", "settings": "prokaryotic screening method"}, "[3]": {"tested_on": "C57B16 mice", "settings": "in vivo; cited from earlier work"}}}
{"molecule": "ezetimibe-glucuronide", "values": [{"measurement": "estimated terminal half-life", "setting": "[1]; po", "value": "approximately 22 hours"}]}
{"molecule": "CCCC(=O)C1(c2ccccc2)CCNCC1.Cl", "values": [{"measurement": "NPC1L1 inhibitor identification", "setting": "[2]", "value": "inhibitor was identified"}]}
{"molecule": "O=C1[C@H](CC[C@H](O)c2ccc(F)cc2)[C@@H](c2ccc(O)cc2)N1c1ccc(F)cc1", "note": "[Zetia®, 1-(4-fluorophenyl)-(3R)-[3-(4-fluorophenyl)-3(S)-hydroxypropyl]-4(S)-(4-hydroxyphenyl)-2-azetidinone]", "values": [{"measurement": "extensively metabolised to the pharmacologically active ezetimibe-glucuronide", "setting": "[1]; po", "value": "> 80", "unit": "%"}, {"measurement": "accumulation", "setting": "[1]", "value": "~2", "unit": "fold"}, {"measurement": "time at which total Zetia concentrations reach a maximum", "setting": "[1]", "value": "1 to 2", "unit": "h"}]}
{"molecule": "COc1ccc2[nH]cc(CCNC(C)=O)c2c1", "note": "[melatonin]", "values": [{"measurement": "life of the C57B16 mouse", "setting": "[3]", "value": "871 ± 30.5", "unit": "days"}]}
